According to the supplement of paper PMC11451515:

System: NOMO1
Experiment: cell viability relative to DMSO control; higher = less cytotoxic
Conditions: 48 h
Method in brief: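 Before seeding, each leukemia line was adapted for at least four passages in each medium. NOMO1 or SEM cells (500 cells/well) and P12-Ichikawa cells (1000 cells/well) went into 1536-well plates at 5 μl, then received library compounds in DMSO by pin dosing across 11 threefold concentrations, 47 μM to 0.79 nM. Readout was CellTiter-Glo One luminescence after 48 h at 37°C, and viability is given as a per-plate percentage of DMSO wells, with cell-free wells as background.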

[1] = HPLM + 10% dialyzed FBS, 0.000781 µM
[2] = HPLM + 10% dialyzed FBS, 0.00234 µM
[3] = HPLM + 10% dialyzed FBS, 0.00702 µM
[4] = HPLM + 10% dialyzed FBS, 0.0211 µM
[5] = HPLM + 10% dialyzed FBS, 0.0632 µM
[6] = HPLM + 10% dialyzed FBS, 0.19 µM
[7] = HPLM + 10% dialyzed FBS, 0.569 µM
[8] = HPLM + 10% dialyzed FBS, 1.71 µM
[9] = HPLM + 10% dialyzed FBS, 5.12 µM
[10] = HPLM + 10% dialyzed FBS, 15.4 µM
[11] = HPLM + 10% dialyzed FBS, 46.1 µM
[12] = RPMI 5 mM glucose + 10% FBS, 0.000781 µM
[13] = RPMI 5 mM glucose + 10% FBS, 0.00234 µM
[14] = RPMI 5 mM glucose + 10% FBS, 0.00702 µM
[15] = RPMI 5 mM glucose + 10% FBS, 0.0211 µM
[16] = RPMI 5 mM glucose + 10% FBS, 0.0632 µM
[17] = RPMI 5 mM glucose + 10% FBS, 0.19 µM
[18] = RPMI 5 mM glucose + 10% FBS, 0.569 µM
[19] = RPMI 5 mM glucose + 10% FBS, 1.71 µM
[20] = RPMI 5 mM glucose + 10% FBS, 5.12 µM
[21] = RPMI 5 mM glucose + 10% FBS, 15.4 µM
[22] = RPMI 5 mM glucose + 10% FBS, 46.1 µM
[23] = RPMI 5 mM glucose + 10% dialyzed FBS, 0.000781 µM
[24] = RPMI 5 mM glucose + 10% dialyzed FBS, 0.00234 µM
[25] = RPMI 5 mM glucose + 10% dialyzed FBS, 0.00702 µM
[26] = RPMI 5 mM glucose + 10% dialyzed FBS, 0.0211 µM
[27] = RPMI 5 mM glucose + 10% dialyzed FBS, 0.0632 µM
[28] = RPMI 5 mM glucose + 10% dialyzed FBS, 0.19 µM
[29] = RPMI 5 mM glucose + 10% dialyzed FBS, 0.569 µM
[30] = RPMI 5 mM glucose + 10% dialyzed FBS, 1.71 µM
[31] = RPMI 5 mM glucose + 10% dialyzed FBS, 5.12 µM
[32] = RPMI 5 mM glucose + 10% dialyzed FBS, 15.4 µM
[33] = RPMI 5 mM glucose + 10% dialyzed FBS, 46.1 µM

CC(C)[C@H](N)C(=O)OCCOC[N]1C=NC2=C1\N=C(N)/NC2=O
cell viability [1]: 102% | cell viability [2]: 119% | cell viability [3]: 110% | cell viability [4]: 122% | cell viability [5]: 135% | cell viability [6]: 135% | cell viability [7]: 133% | cell viability [8]: 123% | cell viability [9]: 133% | cell viability [10]: 113% | cell viability [11]: 142%

CC/1=C(\O)C(=O)\C=C2/C1=C/C=C3\[C@@]2(C)CC[C@@]4(C)[C@@H]5C[C@@](C)(CC[C@]5(C)CC[C@]34C)C(O)=O
cell viability [1]: 104% | cell viability [2]: 119% | cell viability [3]: 97.5% | cell viability [4]: 99.6% | cell viability [5]: 108% | cell viability [6]: 115% | cell viability [7]: 113% | cell viability [8]: 90% | cell viability [9]: 23.4% | cell viability [10]: 8.21% | cell viability [11]: 8.32% | cell viability [12]: 92.5% | cell viability [13]: 103% | cell viability [14]: 102% | cell viability [15]: 105% | cell viability [16]: 95% | cell viability [17]: 90.6% | cell viability [18]: 85.6% | cell viability [19]: 89.7% | cell viability [20]: 26.2% | cell viability [21]: 11% | cell viability [22]: 6.03% | cell viability [23]: 108% | cell viability [24]: 104% | cell viability [25]: 112% | cell viability [26]: 99.8% | cell viability [27]: 109% | cell viability [28]: 97.6% | cell viability [29]: 110% | cell viability [30]: 82.6% | cell viability [31]: 20.6% | cell viability [32]: 14.1% | cell viability [33]: 5.2%

O=C(Nc1cccnn1)N1CCC(=Cc2cccc(Oc3ccc(C(F)(F)F)cn3)c2)CC1
cell viability [1]: 72.8% | cell viability [2]: 98.3% | cell viability [3]: 109% | cell viability [4]: 47.4% | cell viability [5]: 122% | cell viability [6]: 117% | cell viability [7]: 113% | cell viability [8]: 124% | cell viability [9]: 110% | cell viability [10]: 102% | cell viability [11]: 110% | cell viability [12]: 83.4% | cell viability [13]: 98.3% | cell viability [14]: 96.3% | cell viability [15]: 21.7% | cell viability [16]: 90.8% | cell viability [17]: 112% | cell viability [18]: 91.6% | cell viability [19]: 97.7% | cell viability [20]: 98.1% | cell viability [21]: 96.2% | cell viability [22]: 94.2% | cell viability [23]: 91% | cell viability [24]: 85.3% | cell viability [25]: 94.4% | cell viability [26]: 75.4% | cell viability [27]: 103% | cell viability [28]: 97.4% | cell viability [29]: 109% | cell viability [30]: 106% | cell viability [31]: 96.5% | cell viability [32]: 103% | cell viability [33]: 100%

Cc1noc(-c2ccc(CSCCC(=O)O)cc2)c1NC(=O)OC(C)c1ccccc1Cl (configuration not stated)
cell viability [1]: 92.3% | cell viability [2]: 89.9% | cell viability [3]: 105% | cell viability [4]: 104% | cell viability [5]: 99.8% | cell viability [6]: 97.1% | cell viability [7]: 95.6% | cell viability [8]: 97% | cell viability [9]: 113% | cell viability [10]: 111% | cell viability [11]: 95.7% | cell viability [12]: 85.7% | cell viability [13]: 97.5% | cell viability [14]: 99% | cell viability [15]: 89.6% | cell viability [16]: 109% | cell viability [17]: 95.4% | cell viability [18]: 102% | cell viability [19]: 100% | cell viability [20]: 95.5% | cell viability [21]: 110% | cell viability [22]: 105% | cell viability [23]: 79% | cell viability [24]: 99.1% | cell viability [25]: 87.3% | cell viability [26]: 86.3% | cell viability [27]: 99.1% | cell viability [28]: 92.2% | cell viability [29]: 99.5% | cell viability [30]: 95.8% | cell viability [31]: 100% | cell viability [32]: 104% | cell viability [33]: 107%

C[C@@H](O)[C@@H]1NC(=O)[C@H](CCCCN)NC(=O)[C@@H](Cc2c[nH]c3ccccc23)NC(=O)[C@H](Cc2ccccc2)NC(=O)[C@@H](NC(=O)[C@H](N)Cc2ccccc2)CSSC[C@@H](C(=O)N[C@H](CO)[C@@H](C)O)NC1=O
cell viability [1]: 75.7% | cell viability [2]: 75% | cell viability [3]: 90% | cell viability [4]: 88.1% | cell viability [5]: 103% | cell viability [6]: 83.6% | cell viability [7]: 91.8% | cell viability [8]: 82.5% | cell viability [9]: 74.2% | cell viability [10]: 81.8% | cell viability [11]: 75.9% | cell viability [12]: 74.6% | cell viability [13]: 79.4% | cell viability [14]: 83.1% | cell viability [15]: 79.3% | cell viability [16]: 83.3% | cell viability [17]: 81.6% | cell viability [18]: 84.5% | cell viability [19]: 76.8% | cell viability [20]: 80.7% | cell viability [21]: 81.1% | cell viability [22]: 83.5% | cell viability [23]: 86.9% | cell viability [24]: 89% | cell viability [25]: 87% | cell viability [26]: 92.2% | cell viability [27]: 93.6% | cell viability [28]: 85.3% | cell viability [29]: 101% | cell viability [30]: 92.5% | cell viability [31]: 91.2% | cell viability [32]: 103% | cell viability [33]: 112%

OC[C@H]1O[C@@H](Oc2cc(O)cc(/C=C/c3ccc(O)cc3)c2)[C@H](O)[C@@H](O)[C@@H]1O
cell viability [1]: 85.6% | cell viability [2]: 116% | cell viability [3]: 107% | cell viability [4]: 128% | cell viability [5]: 115% | cell viability [6]: 111% | cell viability [7]: 99.4% | cell viability [8]: 74.8% | cell viability [9]: 63.1% | cell viability [10]: 58.8% | cell viability [11]: 45% | cell viability [12]: 102% | cell viability [13]: 99.2% | cell viability [14]: 111% | cell viability [15]: 121% | cell viability [16]: 104% | cell viability [17]: 106% | cell viability [18]: 98.1% | cell viability [19]: 91.5% | cell viability [20]: 84.2% | cell viability [21]: 63.2% | cell viability [22]: 63.3% | cell viability [23]: 85.6% | cell viability [24]: 92.4% | cell viability [25]: 88.3% | cell viability [26]: 98.4% | cell viability [27]: 109% | cell viability [28]: 108% | cell viability [29]: 103% | cell viability [30]: 84.7% | cell viability [31]: 51.9% | cell viability [32]: 52.7% | cell viability [33]: 76.5%

Cc1cccc(/C=N/Nc2cc(N3CCOCC3)nc(OCCc3ccccn3)n2)c1
cell viability [1]: 101% | cell viability [2]: 106% | cell viability [3]: 111% | cell viability [4]: 107% | cell viability [5]: 90.2% | cell viability [6]: 97.9% | cell viability [7]: 94.5% | cell viability [8]: 77.5% | cell viability [9]: 41.5% | cell viability [10]: 34.4% | cell viability [11]: 24.3% | cell viability [12]: 98.8% | cell viability [13]: 107% | cell viability [14]: 97.9% | cell viability [15]: 99.5% | cell viability [16]: 87.6% | cell viability [17]: 97% | cell viability [18]: 77.2% | cell viability [19]: 68.2% | cell viability [20]: 19.3% | cell viability [21]: 22.6% | cell viability [22]: 21.4% | cell viability [23]: 99.8% | cell viability [24]: 93% | cell viability [25]: 90.9% | cell viability [26]: 98.6% | cell viability [27]: 95.4% | cell viability [28]: 85.8% | cell viability [29]: 75.9% | cell viability [30]: 38.7% | cell viability [31]: 15.1% | cell viability [32]: 18.8% | cell viability [33]: 17.5%

CCOC(=O)\C1=C\[C@@H](OC(CC)CC)[C@H](NC(C)=O)[C@@H](N)C1
cell viability [1]: 90.4% | cell viability [2]: 86.1% | cell viability [3]: 94.3% | cell viability [4]: 98.9% | cell viability [5]: 93.7% | cell viability [6]: 107% | cell viability [7]: 92.5% | cell viability [8]: 93.1% | cell viability [9]: 84% | cell viability [10]: 86.9% | cell viability [11]: 86.4% | cell viability [12]: 91.9% | cell viability [13]: 92.5% | cell viability [14]: 94.9% | cell viability [15]: 91.9% | cell viability [16]: 95.1% | cell viability [17]: 98.9% | cell viability [18]: 95.7% | cell viability [19]: 102% | cell viability [20]: 88.9% | cell viability [21]: 103% | cell viability [22]: 82.7% | cell viability [23]: 84.4% | cell viability [24]: 93.4% | cell viability [25]: 102% | cell viability [26]: 87.4% | cell viability [27]: 94.9% | cell viability [28]: 106% | cell viability [29]: 93.6% | cell viability [30]: 91.7% | cell viability [31]: 99.3% | cell viability [32]: 103% | cell viability [33]: 87.1%
